In ChEMBL document CHEMBL1122054, “Lysosomotropic agents. 4. Carbobenzoxyglycylphenylalanyl, a new protease-sensitive masking group for introduction into cells” (J Med Chem, 1982):

Legend:
Mus musculus [1] = species: Mus musculus; assay: Evaluated for the percent inhibition uptake of radiolabeled thymidine as a measure of inhibition of cell division against the SV40-transformed 3T3 cells after 4 hr at the concentration of 6; format: functional, NIH3T3
Mus musculus [2] = species: Mus musculus; assay: Evaluated for the percent inhibition uptake of radiolabeled thymidine as a measure of inhibition of cell division against the SV40-transformed 3T3 cells after 4 hr at the concentration of 3x10E4M; format: functional, NIH3T3
Mus musculus [3] = species: Mus musculus; assay: Evaluated for the percent inhibition uptake of radiolabeled thymidine as a measure of inhibition of cell division against the SV40-transformed 3T3 cells after 4 hr at the concentration of 1x10E4M; format: functional, NIH3T3
Mus musculus [4] = species: Mus musculus; assay: Toxicity toward P-815 Mastocytoma cells after 5 hr was determined as percent of [51Cr]- release from labeled cells as a measure of cell death. at a concentration of 0.257 mM. (expt III); format: functional
Mus musculus [5] = species: Mus musculus; assay: Toxicity was evaluated for the compound at a concentration of 0.257 mM against […] Mastocytoma.; format: functional
Mus musculus [6] = species: Mus musculus; assay: Evaluated for the percent inhibition uptake of radiolabeled leucine as a measure of inhibition of protein synthesis i.e., cell death against the SV40-transformed 3T3 cells at 4 hr at the concentration of 6Mx10E4 for expt VII; format: functional, NIH3T3
Mus musculus [7] = species: Mus musculus; assay: Evaluated for the percent inhibition uptake of radiolabeled thymidine as a measure of inhibition of cell division against the SV40-transformed 3T3 cells at the concentration of 3*10^-4M after 4 hr; format: functional, NIH3T3
Mus musculus [8] = species: Mus musculus; assay: Evaluated for the percent inhibition uptake of radiolabeled thymidine as a measure of inhibition of cell division against the SV40-transformed 3T3 cells at the concentration of 3*10^-4M after 3h; format: functional, NIH3T3
Mus musculus [9] = species: Mus musculus; assay: Evaluated for the percent inhibition uptake of radiolabeled thymidine as a measure of inhibition of cell division against the SV40-transformed 3T3 cells after 4 hr at the concentration of 3x10E4M for experiment X; format: functional, NIH3T3
Mus musculus [10] = species: Mus musculus; assay: Evaluated for the percent inhibition uptake of radiolabeled leucine as a measure of inhibition of protein synthesis i.e., cell death against the SV40-transformed 3T3 cells at 4 hr at the concentration of 3Mx10E4 for expt VII; format: functional, NIH3T3
Mus musculus [11] = species: Mus musculus; assay: Toxicity was evaluated for the compound at a concentration of 0.312 mM against […] Mastocytoma.; format: functional
Mus musculus [12] = species: Mus musculus; assay: Evaluated for the percent inhibition uptake of radiolabeled thymidine as a measure of inhibition of cell division against the SV40-transformed 3T3 cells at the concentration of 3*10^-4M after 8 hr; format: functional, NIH3T3
Mus musculus [13] = species: Mus musculus; assay: Evaluated for the percent inhibition uptake of radiolabeled thymidine as a measure of inhibition of cell division against the L1210 cells after 4 hr at the concentration of 1.5x10E4M; format: functional
Mus musculus [14] = species: Mus musculus; assay: Evaluated for the percent inhibition uptake of radiolabeled thymidine as a measure of inhibition of cell division against the SV40-transformed 3T3 cells at 4 hr at the concentration of 3Mx10E4 for expt VI; format: functional, NIH3T3
Mus musculus [15] = species: Mus musculus; assay: Evaluated for the percent inhibition uptake of radiolabeled thymidine as a measure of inhibition of cell division against the SV40-transformed 3T3 cells after 4 hr at the concentration of 1x10E4M for experiment XI; format: functional, NIH3T3
Mus musculus [16] = species: Mus musculus; assay: Evaluated for the percent inhibition uptake of radiolabeled thymidine as a measure of inhibition of cell division against the SV40-transformed 3T3 cells at 4 hr at the concentration of 1Mx10E4 for expt VII; format: functional, NIH3T3
Mus musculus [17] = species: Mus musculus; assay: Evaluated for the percent inhibition uptake of radiolabeled thymidine as a measure of inhibition of cell division against the SV40-transformed 3T3 cells at 4 hr at the concentration of 10Mx10E4 for expt VII; format: functional, NIH3T3
Mus musculus [18] = species: Mus musculus; assay: Toxicity toward P-815 Mastocytoma cells after 5 hr was determined as percent of [51Cr]- release from labeled cells as a measure of cell death at a concentration of 0.208 mM (expt III); format: functional
Mus musculus [19] = species: Mus musculus; assay: Evaluated for the percent inhibition uptake of radiolabeled thymidine as a measure of inhibition of cell division against the SV40-transformed 3T3 cells at the concentration of 3*10^-4M after 24 hr; format: functional, NIH3T3
Mus musculus [20] = species: Mus musculus; assay: Evaluated for the percent inhibition uptake of radiolabeled thymidine as a measure of inhibition of cell division against the SV40-transformed 3T3 cells after 4 hr at the concentration of 1x10E4M for experiment X; format: functional
Mus musculus [21] = species: Mus musculus; assay: Toxicity was evaluated for the compound at a concentration of 0.104 mM against […] Mastocytoma.; format: functional
Mus musculus [22] = species: Mus musculus; assay: Evaluated for the percent inhibition uptake of radiolabeled thymidine as a measure of inhibition of cell division against the SV40-transformed 3T3 cells after 4 hr at the concentration of 6x10E4M for experiment XI; format: functional, NIH3T3
Mus musculus [23] = species: Mus musculus; assay: Evaluated for the percent inhibition uptake of radiolabeled thymidine as a measure of inhibition of cell division against the SV40-transformed 3T3 cells at 4 hr at the concentration of 6Mx10E4 for expt VI; format: functional, NIH3T3
Mus musculus [24] = species: Mus musculus; assay: Evaluated for the percent inhibition uptake of radiolabeled thymidine as a measure of inhibition of cell division against the SV40-transformed 3T3 cells at 4 hr at the concentration of 6Mx10E4 for expt VII; format: functional, NIH3T3
Mus musculus [25] = species: Mus musculus; assay: Evaluated for the percent inhibition uptake of radiolabeled thymidine as a measure of inhibition of cell division against the SV40-transformed 3T3 cells at 4 hr at the concentration of 4Mx10E4 for expt VII; format: functional, NIH3T3
Mus musculus [26] = species: Mus musculus; assay: Evaluated for the percent inhibition uptake of radiolabeled leucine as a measure of inhibition of protein synthesis i.e., cell death against the SV40-transformed 3T3 cells at 4 hr at the concentration of 3Mx10E4 for expt VIII; format: functional, NIH3T3
Mus musculus [27] = species: Mus musculus; assay: Evaluated for the percent inhibition uptake of radiolabeled leucine as a measure of inhibition of protein synthesis i.e., cell death against the SV40-transformed 3T3 cells at 4 hr at the concentration of 1Mx10E4 for expt VIII; format: functional, NIH3T3
Mus musculus [28] = species: Mus musculus; assay: Toxicity toward P-815 Mastocytoma cells after 5 hr was determined as percent of [51Cr]- release from labeled cells as a measure of cell death at a concentration of 0.312 mM (expt IV); format: functional
Mus musculus [29] = species: Mus musculus; assay: Evaluated for the percent inhibition uptake of radiolabeled leucine as a measure of inhibition of protein synthesis i.e., cell death against the SV40-transformed 3T3 cells at 4 hr at the concentration of 6Mx10E4 for expt VIII; format: functional, NIH3T3
Mus musculus [30] = species: Mus musculus; assay: Evaluated for the percent inhibition uptake of radiolabeled leucine as a measure of inhibition of protein synthesis i.e., cell death against the SV40-transformed 3T3 cells at 4 hr at the concentration of 1Mx10E4 for expt VII; format: functional, NIH3T3
Mus musculus [31] = species: Mus musculus; assay: Toxicity was evaluated for the compound at a concentration of 0.208 mM against […] Mastocytoma.; format: functional
Mus musculus [32] = species: Mus musculus; assay: Evaluated for the percent inhibition uptake of radiolabeled thymidine as a measure of inhibition of cell division against the SV40-transformed 3T3 cells at 4 hr at the concentration of 1Mx10E4 for expt VI; format: functional
Mus musculus [33] = species: Mus musculus; assay: Toxicity toward P-815 Mastocytoma cells after 5 hr was determined as percent of [51Cr]- release from labeled cells as a measure of cell death at a concentration of 0.312 mM (expt V); format: functional
Mus musculus [34] = species: Mus musculus; assay: Toxicity toward P-815 Mastocytoma cells after 5 hr was determined as percent of [51Cr]- release from labeled cells as a measure of cell death at a concentration of 0.208 mM (expt IV); format: functional
Mus musculus [35] = species: Mus musculus; assay: Evaluated for the percent inhibition uptake of radiolabeled thymidine as a measure of inhibition of cell division against the SV40-transformed 3T3 cells at the concentration of 3*10^-4M after 6 hr; format: functional, NIH3T3
Mus musculus [36] = species: Mus musculus; assay: Evaluated for the percent inhibition uptake of radiolabeled thymidine as a measure of inhibition of cell division against the SV40-transformed 3T3 cells at 4 hr at the concentration of 3Mx10E4 for expt VII; format: functional, NIH3T3
Mus musculus [37] = species: Mus musculus; assay: Evaluated for the percent inhibition uptake of radiolabeled thymidine as a measure of inhibition of cell division against the SV40-transformed 3T3 cells after 4 hr at the concentration of 6x10E4M for experiment X; format: functional
Mus musculus [38] = species: Mus musculus; assay: Evaluated for the percent inhibition uptake of radiolabeled thymidine as a measure of inhibition of cell division against the L1210 cells after 4 hr at the concentration of 3.0x10E4M; format: functional
Mus musculus [39] = species: Mus musculus; assay: Evaluated for the percent inhibition uptake of radiolabeled thymidine as a measure of inhibition of cell division against the L1210 cells after 4 hr at the concentration of 0.5x10E4M; format: functional
Mus musculus [40] = species: Mus musculus; assay: Toxicity toward P-815 Mastocytoma cells after 5 hr was determined as percent of [51Cr]- release from labeled cells as a measure of cell death at a concentration of 0.104 mM (expt IV); format: functional
Mus musculus [41] = species: Mus musculus; assay: Evaluated for the percent inhibition uptake of radiolabeled thymidine as a measure of inhibition of cell division against the SV40-transformed 3T3 cells after 4 hr at the concentration of 3x10E4M for experiment XI; format: functional, NIH3T3

Q: What does the source list for `CC(C)(C)OC(=O)NCC(=O)N[C@H](Cc1ccccc1)C(=O)N(CCCl)CCCl`?
A: Inhibition uptake (Mus musculus [1]): 52%; Inhibition uptake (Mus musculus [2]): 33%; Inhibition uptake (Mus musculus [3]): -4%

Q: Which results are given for `CCCCCCCCCCCCNC(=O)[C@H](Cc1ccccc1)NC(=O)CN`?
A: Cr release (Mus musculus [4]): 93%; Toxicity (Mus musculus [5]): 100 µg/mL

Q: How did the Inhibition uptake (Mus musculus [6]) turn out when `O=C(CNC(=O)OCc1ccccc1)N[C@H](Cc1ccccc1)C(=O)N(CCCl)CCCl` was run?
A: 36%

Q: And the Inhibition uptake (Mus musculus [7])?
A: 80%

Q: What about the Inhibition uptake (Mus musculus [8]) of the same compound?
A: 76%

Q: And the Inhibition uptake (Mus musculus [9])?
A: 46%

Q: And the Inhibition uptake (Mus musculus [10])?
A: 10%

Q: What about the Toxicity (Mus musculus [11]) of the same compound?
A: 150 µg/mL

Q: And the Inhibition uptake (Mus musculus [12])?
A: 86%

Q: What about the Inhibition uptake (Mus musculus [13]) of the same compound?
A: 57%

Q: What about the Inhibition uptake (Mus musculus [14]) of the same compound?
A: 60%

Q: What about the Inhibition uptake (Mus musculus [15]) of the same compound?
A: 36%

Q: And the Inhibition uptake (Mus musculus [16])?
A: 12%

Q: What about the Inhibition uptake (Mus musculus [17]) of the same compound?
A: 92%

Q: And the Cr release (Mus musculus [18])?
A: 29%

Q: What about the Inhibition uptake (Mus musculus [19]) of the same compound?
A: 88%

Q: What about the Inhibition uptake (Mus musculus [20]) of the same compound?
A: 14%

Q: And the Toxicity (Mus musculus [21])?
A: 50 µg/mL

Q: And the Inhibition uptake (Mus musculus [22])?
A: 75%

Q: What about the Inhibition uptake (Mus musculus [23]) of the same compound?
A: 93%

Q: And the Inhibition uptake (Mus musculus [24])?
A: 70%

Q: And the Inhibition uptake (Mus musculus [25])?
A: 61%

Q: And the Inhibition uptake (Mus musculus [26])?
A: 33%

Q: And the Inhibition uptake (Mus musculus [27])?
A: 5%

Q: What about the Cr release (Mus musculus [28]) of the same compound?
A: 34%

Q: And the Inhibition uptake (Mus musculus [29])?
A: 83%

Q: And the Inhibition uptake (Mus musculus [30])?
A: -1%

Q: What about the Toxicity (Mus musculus [31]) of the same compound?
A: 100 µg/mL

Q: What about the Inhibition uptake (Mus musculus [32]) of the same compound?
A: 7%

Q: And the Cr release (Mus musculus [33])?
A: 19%

Q: What about the Cr release (Mus musculus [34]) of the same compound?
A: 27%

Q: And the Inhibition uptake (Mus musculus [35])?
A: 83%

Q: What about the Inhibition uptake (Mus musculus [36]) of the same compound?
A: 46%

Q: And the Inhibition uptake (Mus musculus [37])?
A: 90%

Q: And the Inhibition uptake (Mus musculus [38])?
A: 76%

Q: And the Inhibition uptake (Mus musculus [39])?
A: 28%

Q: And the Cr release (Mus musculus [40])?
A: 22%

Q: And the Inhibition uptake (Mus musculus [41])?
A: 36%
